Experiments:
[1] = Release of Coenzyme Q10 into saliva from sugar-coated gums with the sample in the sugar coating, chewed by four subjects; type: in vivo, human; conditions: sugar-coated gum, 0.020 wt % CoQ10 in gum, one piece (1.5 g) chewed 5 min, 60 times/min
Experimental: Sugar-coated gums (1.5 g/tablet) each comprising Coenzyme Q10 in the sugar coating were prepared in the manner described below such that the content of Coenzyme Q10 in 100 g of the sugar-coated gum was 20 mg.
A gum base (trade name: Gum Base LT2, manufactured by Lotte, Co., Ltd.) was kneaded at 70° C. with xylitol, corn syrup and glycerol, and after the addition of Lemon Oil No. 2451* (flavoring agent), the mixture was cooled to room temperature and molded to a tablet shape.
Maltitol and gum arabic were added to water and dissolved by heating. After cooling the mixture to room temperature, one each of Sample 1, 2, 4, 5 or 6 was added and mixed homogeneously.
The sugar solutions thus obtained were each spray dried over the gum centers using a coating pan and dried. The proportion of the sugar-coating layer was 50 parts by weight to 100 parts by weight of the gum center. […]
Each type of the sugar-coated gums prepared above were sampled in a precise amount of 6 g (total weight of four pieces), and one piece each of these gums was chewed by four subjects under the same conditions as in Test Example 1. […] The samples were subjected to HPLC under the same conditions to determine the contents of Coenzyme Q10 in the chewed gums, and then the release of Coenzyme Q10 into saliva from these gums was evaluated as in Test Example 1.

[2] = Release of Coenzyme Q10 into saliva from stick gums chewed by four subjects (HPLC of chewed gum); type: in vivo, human; conditions: 0.048 wt % CoQ10 in gum, 1 g chewed 5 min, 60 times/min
Experimental: Using one of Samples 1 to 5 obtained above, raw materials were blended according to the formulation shown below such that the content of Coenzyme Q10 in 100 g of the resulting stick gum would be 48 mg, and each mixture was molded to form a stick gum. Specific procedures are as follows: A gum base was first kneaded at 70° C. with sugar, corn syrup and glycerol, and the mixture was blended with Lemon Oil No. 2451* (flavoring agent) and San Yellow^‡ No. 3* (colorant). One each of Samples 1, 2, 3, 4 or 5 was then added to the resulting mixture. After cooling to room temperature, each material was rolled and molded to prepare a chewing gum (stick gum). The gum base used in the following formulation was purchased from Lotte, Co., Ltd. (Gum Base LT1).
Each type of the stick gums thus prepared was sampled in a precise amount of 4 g, and placed in a stoppered centrifuge tube. To the tube was added 10 ml of a 20% (v/v) tetrahydrofuran aqueous solution. The tube was then equipped with a Dimroth condenser, and the solution was refluxed, while occasionally mixing it by shaking, in a hot bath at 82° C. for 30 minutes. The refluxed solution was then cooled to room temperature, and 15 ml of diethyl ether was added, followed by extraction with shaking for 10 minutes. […]
The proportion of Coenzyme Q10 released into saliva was determined based on Equation 1: […]

SMILES: COC1=C(OC)C(=O)C(C/C=C(\C)CC/C=C(\C)CC/C=C(\C)CC/C=C(\C)CC/C=C(\C)CC/C=C(\C)CC/C=C(\C)CC/C=C(\C)CC/C=C(\C)CCC=C(C)C)=C(C)C1=O [Sample 5, Coenzyme Q10]
- Release (%) of Coenzyme Q10 into saliva [1]: 30.0%
- Release (%) of Coenzyme Q10 into saliva [2]: 0%

Source: patent US20100008971A1, “CHEWING COMPOSITION COMPRISING COENZYME Q10” (SAN-EI GEN F.F.I., INC., priority 2006, published 2010)
